US7250269B2, “Composition for assaying glycoprotein” (Asahi Kasei Pharma Corporation, priority 2001, dated 2007)

Experiments:
Assay type in all cases: biochemical
[1] = molecular target: Fusarium oxysporum IFO-9972 fructosyl amino acid oxidase (FOD), mutant FOD-M, 372nd lysine of SEQ ID NO: 1 replaced with methionine, SEQ ID NO: 3 (Fusarium oxysporum, UniProt X0D315, K373M); assay: Substrate specificity of mutant FOD-M, Table 6 (372nd lysine replaced with methionine); settings: for Kcat: substrate glycated amino acid
Protocol: (§1) <<Method for Measuring Activity of Enzyme Reacting with Glycated Amino Acid>>
(§2) <Composition of Reaction Solution>
(§3) The glycated amino acid substrate specificity of FOD-mutated recombinant contained in the cell extract prepared in Example 16 was measured using the above-mentioned FOD enzyme activity measuring method. As a result, two mutants of which the reactivity with glycated valine is less than 1/1,000 the reactivity with glycated lysine were identified among candidate strains. These were regarded as the target mutants.
(§4) To observe the effect of replacement with other amino acids at the mutated amino acid site identified in Example 19, the site-directed mutagenesis according to the method of Kunkel et al. was carried out. Synthesis of an oligonucleotide having the base sequence of 1-27 in the sequence table Sequence ID No. 7 was consigned to an outside source (BEX Co., Ltd.). The oligonucleotide was subjected to the site-directed mutagenesis using the Mutan-K kit (manufactured by Takara Shuzo Co., Ltd.) according to the manual attached to the kit. The mutant gene obtained was incorporated again into the expression plasmid pTV119N, introduced into Escherichia coli host, and cultured at 30° C. for 16 hours in a 3.7% BHI liquid medium containing 50 μg/ml of ampicillin and 1 mM of IPTG to produce mutant FOD protein.
(§5) The mutant obtained by replacing the lysine with tryptophan was named FOD-W, the expression plasmid producing the FOD-W was named pcmFOD3, the mutant obtained by replacing the lysine with methionine was named FOD-M, the expression plasmid producing the FOD-M was named pcmFOD4, the mutant obtained by replacing the lysine with valine was named FOD-V, and the expression plasmid producing the FOD-V was named pcmFOD5.

[2] = molecular target: Fusarium oxysporum IFO-9972 fructosyl amino acid oxidase (FOD), mutant with 372nd lysine of SEQ ID NO: 1 replaced with threonine (Fusarium oxysporum, UniProt X0D315, K373T); assay: Substrate specificity of mutant FOD, Table 6 (372nd lysine replaced with threonine); settings: for Kcat: substrate glycated amino acid
Protocol: as §1, §2, §3, §4

[3] = molecular target: Fusarium oxysporum IFO-9972 fructosyl amino acid oxidase (FOD), mutant with 372nd lysine of SEQ ID NO: 1 replaced with cysteine (Fusarium oxysporum, UniProt X0D315, K373C); assay: Substrate specificity of mutant FOD, Table 6 (372nd lysine replaced with cysteine); settings: for Kcat: substrate glycated amino acid
Protocol: as §1, §2, §3, §4

[4] = molecular target: Fusarium oxysporum IFO-9972 fructosyl amino acid oxidase (FOD), mutant FOD-W, 372nd lysine of SEQ ID NO: 1 replaced with tryptophan, SEQ ID NO: 2 (Fusarium oxysporum, UniProt X0D315, K373W); assay: Substrate specificity and Km of mutant FOD-W (372nd lysine replaced with tryptophan); settings: substrate glycated amino acid, "below limit" = below the detection limit
Protocol: as §1, §2, §3
as §4, with “protein. […]” for “protein.”

[5] = molecular target: Fusarium oxysporum IFO-9972 fructosyl amino acid oxidase (FOD), mutant with 372nd lysine of SEQ ID NO: 1 replaced with serine (Fusarium oxysporum, UniProt X0D315, K373S); assay: Substrate specificity of mutant FOD, Table 6 (372nd lysine replaced with serine); settings: for Kcat: substrate glycated amino acid
Protocol: as §1, §2, §3, §4

[6] = molecular target: Fusarium oxysporum IFO-9972 fructosyl amino acid oxidase (FOD), mutant with 372nd lysine of SEQ ID NO: 1 replaced with arginine (Fusarium oxysporum, UniProt X0D315, K373R); assay: Substrate specificity of mutant FOD, Table 6 (372nd lysine replaced with arginine); settings: for Kcat: substrate glycated amino acid
Protocol: as §1, §2, §3
The base sequences of the mutant FOD genes obtained in Example 18 were determined according to the dideoxy method.
as §4

[7] = molecular target: Fusarium oxysporum IFO-9972 fructosyl amino acid oxidase (FOD), mutant FOD-V, 372nd lysine of SEQ ID NO: 1 replaced with valine, SEQ ID NO: 4 (Fusarium oxysporum, UniProt X0D315, K373V); assay: Substrate specificity of mutant FOD-V, Table 6 (372nd lysine replaced with valine); settings: for Kcat: substrate glycated amino acid
Protocol: as §1, §2, §3, §4, §5

[8] = molecular target: Fusarium oxysporum IFO-9972 fructosyl amino acid oxidase (FOD), wild type (372nd lysine), SEQ ID NO: 1 (Fusarium oxysporum, UniProt X0D315); assay: Substrate specificity of FOD, Table 6 (372nd amino acid Lysine, wild type); settings: for Kcat: substrate glycated amino acid
Protocol: as §1, §2, §3, §4

[9] = molecular target: Fusarium oxysporum IFO-9972 fructosyl amino acid oxidase (FOD), mutant with 372nd lysine of SEQ ID NO: 1 replaced with alanine (Fusarium oxysporum, UniProt X0D315, K373A); assay: Substrate specificity of mutant FOD, Table 6 (372nd lysine replaced with alanine); settings: for Kcat: substrate glycated amino acid
Protocol: as §1, §2, §3, §4

Structure (SMILES) | Kcat [1] | Kcat [2] | Kcat [3] | Kcat [4] | Kcat [5] | Kcat [6] | Kcat [7] | Kcat [8] | Kcat [9] | Kcat reactivity ratio (a)/(b), glycated lysine/glycated valine [1] | Kcat reactivity ratio (a)/(b), glycated lysine/glycated valine [2] | Kcat reactivity ratio (a)/(b), glycated lysine/glycated valine [3] | Kcat reactivity ratio (a)/(b), glycated lysine/glycated valine [5] | Kcat reactivity ratio (a)/(b), glycated lysine/glycated valine [6] | Kcat reactivity ratio (a)/(b), glycated lysine/glycated valine [7] | Kcat reactivity ratio (a)/(b), glycated lysine/glycated valine [8] | Kcat reactivity ratio (a)/(b), glycated lysine/glycated valine [9]
CC(C)[C@H](NCC1(O)OC[C@@H](O)[C@@H](O)[C@@H]1O)C(=O)O (some centres unmarked) [glycated valine, 1-deoxy-fructosyl valine] | 1.14 | 0.47 | 0.37 | below limit | 1.68 | 0.45 | 1.04 | 549 | 1.21 | – | – | – | – | – | – | – | –
O=C(N[C@@H](CCCCNCC1(O)OC[C@@H](O)[C@@H](O)[C@@H]1O)C(=O)O)OCc1ccccc1 (stereo partly drawn) [glycated lysine, α-carbobenzoxy-ε-D-1-deoxy-fructosyl lysine] | 853 | 952 | 569 | 248 | 1250 | 351 | 1470 | 14900 | 1790 | 745 | 2010 | 1560 | 747 | 788 | 1420 | 27.1 | 1480
